Measurements taken from paper PMC13128454, “Mutant p53 protein accumulation is selectively targetable by proximity-inducing drugs” (Nature Chemical Biology, 2025).
Where “and” joins values, the source holds several entries; their conditions need not be identical. Equal values may be shown once. Read-outs that look alike come from different tables or passages of the source.

Key:
Assay type in all cases: cell-based
[1] = viability with doxycycline-inducible construct; conditions: human, dox 1000, read-out: mean_norm (normalized viability)
Method: (§1) Cells were plated in 384-well plates (typically 1,500 cells per well) with varying concentrations of compounds, with a total volume of 50 μl per well. CTG reagent was added (25 μl) to the solutions, mixed and read out using an EnVision 2105 multimode plate reader.

[2] = tested on: 293T cells expressing a dox inducible Halo–p53-Y220C ΔTAD–mCherry; experiment: viability with doxycycline-inducible construct
Method: as §1

parental 293T cells = experiment: cell-cycle analysis (DNA content, DAPI flow cytometry); conditions: WT, 1 day
Method: Cells were split into a 10-cm dish at low confluency (20%) and grown overnight. Cells were synchronized using overnight treatment with palbociclib (150 nM), washed and split into a six-well plate for treatment with compound for 24 h. Cells were harvested by trypsinization, washed twice with cold 1× PBS, fixed by dropwise addition of ice-cold 70% ethanol while vortexing and incubated overnight (4 °C). Fixed samples were centrifuged at 1,000g for 5 min and 70% ethanol was removed. Cells were washed twice with 1× PBS + 1% BSA before DNA labeling with 1 µg ml^−1 DAPI for 10 min at room temperature, before being analyzed for DNA content by flow cytometry (Beckman CytoFLEX LX).

[3] = tested on: p53 luciferase transcriptional reporter in MFE319 cells; experiment: p53 luciferase reporter assay; conditions: for p53 luciferase reporter signal (normalized), replicates: MFE319
Method: (§2) Huh7 and MFE319 cell lines stably expressing a p53 reporter (Addgene, 90363)[59] were generated. Cells were plated in 384-well plates (1,500 cells per well) and treated with varying concentrations of compound. Then, 16 h after treatment, firefly luciferase substrate was added to the cells and luminescence was monitored using an EnVision 2105 multimode plate reader.

[4] = tested on: p53 luciferase transcriptional reporter in Huh7 cells; experiment: p53 luciferase reporter assay; conditions: for p53 luciferase reporter signal (normalized), replicates: Huh7
Method: as §2

[5] = Conc 0.38 (unit not given; p53-01 in μM, BI2536 in nM)
[6] = Conc 0.75 (unit not given; p53-01 in μM, BI2536 in nM)
[7] = Conc 1.50 (unit not given; p53-01 in μM, BI2536 in nM)
[8] = Conc 10.00 (unit not given; per b27 BI2536 in nM)

With `CC[C@@H]1C(=O)N(C)c2cnc(Nc3ccc(C(=O)NC4CCN(C)CC4)cc3OC)nc2N1C1CCCC1` [BI2536] as the compound, how does the viability ([1]; Concentration 0.625) read?
Its viability is 74.2%.

And the viability ([1]; Concentration 1.25)?
Its viability is 48.7%.

And the viability ([1]; Concentration 2.5)?
The viability was 18.6%.

What about the viability ([1]; Concentration 5) of the same compound?
The viability was 14.5%.

What about the viability ([1]; Concentration 10) of the same compound?
Its viability is 10.7%.

What about the “change of potency upon doxycycline induction” value ([2]; dox 0, 100, 1000 ng/mL, 4 days) of the same compound?
Its value is “without impacting the potency”.

What about the “mean_norm (normalized viability)” value ([2]; dox 0, Concentration 0.0390625) of the same compound?
Its value is 0.9266.

What about the “mean_norm (normalized viability)” value ([2]; dox 0, Concentration 0.078125) of the same compound?
Its value is 0.8991.

What about the “mean_norm (normalized viability)” value ([2]; dox 0, Concentration 0.15625) of the same compound?
Its value is 0.8734.

And the “mean_norm (normalized viability)” value ([2]; dox 0, Concentration 0.3125)?
Its value is 0.835.

And the “mean_norm (normalized viability)” value ([2]; dox 0, Concentration 0.625)?
The value was 0.7837.

What about the “mean_norm (normalized viability)” value ([2]; dox 0, Concentration 1.25) of the same compound?
The value was 0.5152.

And the “mean_norm (normalized viability)” value ([2]; dox 0, Concentration 2.5)?
The value was 0.218.

What about the “mean_norm (normalized viability)” value ([2]; dox 0, Concentration 5) of the same compound?
Its value is 0.1689.

And the “mean_norm (normalized viability)” value ([2]; dox 0, Concentration 10)?
Its value is 0.1644.

And the “mean_norm (normalized viability)” value ([2]; dox 100, Concentration 0.3125)?
Its value is 0.8537.

What about the “mean_norm (normalized viability)” value ([2]; dox 100, Concentration 0.625) of the same compound?
Its value is 0.6735.

And the “mean_norm (normalized viability)” value ([2]; dox 100, Concentration 1.25)?
Its value is 0.3823.

And the “mean_norm (normalized viability)” value ([2]; dox 100, Concentration 2.5)?
Its value is 0.2022.

And the “mean_norm (normalized viability)” value ([2]; dox 100, Concentration 5)?
Its value is 0.161.

And the “mean_norm (normalized viability)” value ([2]; dox 100, Concentration 10)?
Its value is 0.1435.

What about the 2N (parental 293T cells; [5]) of the same compound?
The 2N was 60.20.

And the 4N (parental 293T cells; [5])?
Its 4N is 37.88.

What about the “Right_of_Gate1 (replicates)” value (parental 293T cells; [5]) of the same compound?
The value was 39.80 and 40.72 and 40.28.

What about the “Right_of_Gate2 (replicates)” value (parental 293T cells; [5]) of the same compound?
The value was 1.92 and 1.75 and 1.63.

What about the 2N (parental 293T cells; [6]) of the same compound?
The 2N was 60.97.

And the 4N (parental 293T cells; [6])?
The 4N was 37.16.

What about the “Right_of_Gate1 (replicates)” value (parental 293T cells; [6]) of the same compound?
The value was 39.03 and 39.73 and 39.74.

What about the “Right_of_Gate2 (replicates)” value (parental 293T cells; [6]) of the same compound?
The value was 1.87 and 1.62 and 1.66.

What about the 2N (parental 293T cells; [7]) of the same compound?
Its 2N is 59.07.

And the 4N (parental 293T cells; [7])?
The 4N was 38.46.

And the “Right_of_Gate1 (replicates)” value (parental 293T cells; [7])?
Its value is 40.93 and 41.63 and 42.56.

What about the “Right_of_Gate2 (replicates)” value (parental 293T cells; [7]) of the same compound?
Its value is 2.47 and 2.39 and 2.53.

What about the 2N (parental 293T cells; [8]) of the same compound?
Its 2N is 2.57.

What about the 4N (parental 293T cells; [8]) of the same compound?
The 4N was 4.74.

What about the “Right_of_Gate1 (replicates)” value (parental 293T cells; [8]) of the same compound?
The value was 97.43 and 97.32 and 97.36.

What about the “Right_of_Gate2 (replicates)” value (parental 293T cells; [8]) of the same compound?
Its value is 92.69 and 91.65 and 92.21.

What about the “induction of p53 reporter” value ([3]; 16 h) of the same compound?
The value was “no induction of luciferase activity”.

What about the “p53 luciferase reporter signal (normalized), replicates” value ([3]; log Concentration (pM) 1.68867) of the same compound?
Its value is 0.8432 and 0.8795 and 0.997.

What about the “p53 luciferase reporter signal (normalized), replicates” value ([3]; log Concentration (pM) 1.9897) of the same compound?
Its value is 1.008 and 0.9306 and 1.09.

What about the “p53 luciferase reporter signal (normalized), replicates” value ([3]; log Concentration (pM) 2.29073) of the same compound?
The value was 0.7831 and 0.9939 and 0.826.

And the “p53 luciferase reporter signal (normalized), replicates” value ([3]; log Concentration (pM) 2.59176)?
The value was 1.029 and 1.032 and 0.9459.

What about the “p53 luciferase reporter signal (normalized), replicates” value ([3]; log Concentration (pM) 2.89279) of the same compound?
The value was 0.8553 and 0.942 and 1.018.

And the “p53 luciferase reporter signal (normalized), replicates” value ([3]; log Concentration (pM) 3.19382)?
The value was 0.956 and 0.9365 and 0.9572.

What about the “p53 luciferase reporter signal (normalized), replicates” value ([3]; log Concentration (pM) 3.49485) of the same compound?
Its value is 0.8748 and 0.9709 and 0.8007.

And the “p53 luciferase reporter signal (normalized), replicates” value ([3]; log Concentration (pM) 3.79588)?
The value was 0.8943 and 0.9669 and 0.8623.

And the “p53 luciferase reporter signal (normalized), replicates” value ([3]; log Concentration (pM) 4.09691)?
The value was 0.6004 and 0.8065 and 0.6757.

And the “p53 luciferase reporter signal (normalized), replicates” value ([3]; log Concentration (pM) 4.39794)?
The value was 0.6617 and 0.6465 and 0.5696.

And the “p53 luciferase reporter signal (normalized), replicates” value ([3]; log Concentration (pM) 4.69897)?
Its value is 0.5274 and 0.6902 and 0.6941.

And the “p53 luciferase reporter signal (normalized), replicates” value ([3]; log Concentration (pM) 5)?
The value was 0.7269 and 0.634 and 0.6632.

What about the “induction of p53 reporter” value ([4]; 16 h, PMV6 at doses of 1.25–10 μM) of the same compound?
Its value is “no such effect”.

And the “p53 luciferase reporter signal (normalized), replicates” value ([4]; log Concentration (pM) 1.68867)?
The value was 1.071 and 1.082 and 0.9754.

What about the “p53 luciferase reporter signal (normalized), replicates” value ([4]; log Concentration (pM) 1.9897) of the same compound?
Its value is 0.9944 and 0.9877 and 0.9088.

And the “p53 luciferase reporter signal (normalized), replicates” value ([4]; log Concentration (pM) 2.29073)?
Its value is 0.9631 and 0.9698 and 0.9782.

What about the “p53 luciferase reporter signal (normalized), replicates” value ([4]; log Concentration (pM) 2.59176) of the same compound?
The value was 1.0179 and 0.8887 and 0.8977.

What about the “p53 luciferase reporter signal (normalized), replicates” value ([4]; log Concentration (pM) 2.89279) of the same compound?
The value was 1.088 and 0.9771 and 0.9776.

What about the “p53 luciferase reporter signal (normalized), replicates” value ([4]; log Concentration (pM) 3.19382) of the same compound?
Its value is 1.04 and 1.0179 and 1.023.

And the “p53 luciferase reporter signal (normalized), replicates” value ([4]; log Concentration (pM) 3.49485)?
The value was 0.8529 and 0.9603 and 1.044.

What about the “p53 luciferase reporter signal (normalized), replicates” value ([4]; log Concentration (pM) 3.79588) of the same compound?
Its value is 0.8775 and 0.9273 and 0.8786.

And the “p53 luciferase reporter signal (normalized), replicates” value ([4]; log Concentration (pM) 4.09691)?
Its value is 0.9161 and 0.9032 and 0.92.

And the “p53 luciferase reporter signal (normalized), replicates” value ([4]; log Concentration (pM) 4.39794)?
Its value is 0.8747 and 0.91 and 0.9648.

What about the “p53 luciferase reporter signal (normalized), replicates” value ([4]; log Concentration (pM) 4.69897) of the same compound?
Its value is 0.9245 and 0.9167 and 0.9228.

What about the “p53 luciferase reporter signal (normalized), replicates” value ([4]; log Concentration (pM) 5) of the same compound?
The value was 0.7964 and 0.863 and 0.8635.
